Values of other authors in patent publication US20150050250A1, “CELL THERAPY TECHNOLOGY TO DELIVER RADIO-PROTECTIVE PEPTIDES” (UNIVERSITY OF SOUTHERN CALIFORNIA, priority 2012, published 2015).

B1: Bowman Birk protease inhibitor (protein)
chain: DDESSKPCCDQCACTKSNPPQCRCSDMRLNSCHSACKSCICALSYPAQCFCVDITDFCYEPCKPSEDDKEN
modifications: Soybean

Assays:
[1] = tested on: fibroblasts; conditions: BBI peptide at 20 μM added directly to the tissue culture medium
[2] = tested on: normal tissue

Row | Molecule | protection of fibroblasts from ionizing radiation [1] | radioprotection of normal tissue in vivo [2]
1 | CALSYPAQCFC (portion of Soybean Bowman Birk protease inhibitor) [BBI peptide] | protected fibroblasts from ionizing radiation | 
2 | B1 |  | selective radioprotection to normal tissue in vivo
